Assay results reported in patent publication US20250074891A1 (Anaxis Pharma Pty Ltd., priority 2021, published 2025).

Legend:
Settings in all cases: Table 35
MLKL (full length) = MLKL (full length) (Homo sapiens (Human), UniProt Q8NB16); assay: KINOMEscan binding assay, MLKL (full length)
Method: (§1) Kinase assays. For most assays, kinase-tagged T7 phage strains were grown in parallel in 24-well blocks in an E. coli host derived from the BL21 strain. E. coli were grown to log-phase and infected with T7 phage from a frozen stock (multiplicity of infection=0.4) and incubated with shaking at 32° C. until lysis (90-150 minutes).
(§2) The Hill Slope was set to −1.

RIP1 = RIP1 (Homo sapiens (Human), UniProt Q13546); assay: KINOMEscan binding assay, RIP1
Sequence of RIP1 (Q13546 whole entry): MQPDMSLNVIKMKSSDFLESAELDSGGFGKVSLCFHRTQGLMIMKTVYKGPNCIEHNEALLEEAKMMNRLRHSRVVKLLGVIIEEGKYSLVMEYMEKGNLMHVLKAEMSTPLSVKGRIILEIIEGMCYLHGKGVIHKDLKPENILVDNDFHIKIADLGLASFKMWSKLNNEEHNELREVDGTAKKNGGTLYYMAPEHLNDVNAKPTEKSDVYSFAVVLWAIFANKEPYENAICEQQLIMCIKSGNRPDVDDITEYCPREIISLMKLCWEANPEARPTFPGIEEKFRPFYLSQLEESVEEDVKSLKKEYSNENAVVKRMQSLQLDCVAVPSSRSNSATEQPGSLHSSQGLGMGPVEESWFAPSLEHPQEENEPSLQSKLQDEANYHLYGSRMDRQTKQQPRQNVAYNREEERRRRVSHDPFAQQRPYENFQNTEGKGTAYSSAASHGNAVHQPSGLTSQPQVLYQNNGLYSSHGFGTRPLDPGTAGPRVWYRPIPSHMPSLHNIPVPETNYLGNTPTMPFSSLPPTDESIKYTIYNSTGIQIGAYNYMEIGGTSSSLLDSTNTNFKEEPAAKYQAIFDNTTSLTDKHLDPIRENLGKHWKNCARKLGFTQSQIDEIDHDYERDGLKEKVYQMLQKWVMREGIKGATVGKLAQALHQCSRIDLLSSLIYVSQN

RIP3 = RIP3 (Homo sapiens (Human), UniProt Q9Y572); assay: KINOMEscan binding assay, RIP3
Sequence of RIP3 (Q9Y572 whole entry): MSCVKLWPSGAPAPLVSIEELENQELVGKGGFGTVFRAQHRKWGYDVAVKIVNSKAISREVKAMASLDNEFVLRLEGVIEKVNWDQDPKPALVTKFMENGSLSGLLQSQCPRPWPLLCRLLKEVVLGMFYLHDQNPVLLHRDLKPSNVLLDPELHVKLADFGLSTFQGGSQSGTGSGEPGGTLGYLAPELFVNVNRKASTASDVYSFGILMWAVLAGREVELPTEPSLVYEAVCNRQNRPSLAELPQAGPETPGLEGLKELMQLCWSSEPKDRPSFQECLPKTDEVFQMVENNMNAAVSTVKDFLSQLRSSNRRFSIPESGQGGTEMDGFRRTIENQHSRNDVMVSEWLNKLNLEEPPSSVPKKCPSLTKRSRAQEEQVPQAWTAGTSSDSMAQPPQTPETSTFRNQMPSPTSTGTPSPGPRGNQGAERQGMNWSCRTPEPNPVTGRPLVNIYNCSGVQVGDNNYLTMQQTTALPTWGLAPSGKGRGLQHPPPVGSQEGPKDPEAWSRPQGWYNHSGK
Method: as §1, §2

Sequence of MLKL (full length) (Q8NB16 whole entry): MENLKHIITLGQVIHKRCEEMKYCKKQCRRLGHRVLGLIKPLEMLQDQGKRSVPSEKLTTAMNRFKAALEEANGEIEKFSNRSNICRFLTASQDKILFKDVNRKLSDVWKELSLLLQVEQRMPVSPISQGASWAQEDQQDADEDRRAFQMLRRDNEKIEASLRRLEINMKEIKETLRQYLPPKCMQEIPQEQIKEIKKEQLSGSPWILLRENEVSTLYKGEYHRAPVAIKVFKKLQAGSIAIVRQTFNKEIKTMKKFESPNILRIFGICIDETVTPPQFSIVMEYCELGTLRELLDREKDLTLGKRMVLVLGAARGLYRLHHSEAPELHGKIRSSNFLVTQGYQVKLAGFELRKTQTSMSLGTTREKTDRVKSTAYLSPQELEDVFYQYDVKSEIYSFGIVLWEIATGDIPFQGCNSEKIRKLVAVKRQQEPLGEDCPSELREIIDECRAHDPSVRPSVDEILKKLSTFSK

Structure (SMILES)	Kd (MLKL (full length)) [µM]	Kd (RIP1) [µM]	Kd (RIP3) [µM]
Cc1cnc(Nc2[nH]nc(-c3ccc(NS(=O)(=O)CC(F)(F)F)c(O[C@@H](C)c4ccc(F)cc4)c3)c2C(N)=O)cn1 [Compound 264, 3-{3-[(1S)-1-(4-fluorophenyl)ethoxy]-4-(2,2,2-trifluoroethanesulfonamido)phenyl}-5-[(5-methylpyrazin-2-yl)amino]-1H-pyrazole-4-carboxamide]	< 0.01	> 30	> 30
CCS(=O)(=O)Nc1ccc(-c2n[nH]c(Nc3cnccn3)c2C(N)=O)cc1O[C@@H](C)c1ccc(F)cc1 [Compound 199, (S)-3-(4-(ethylsulfonamido)-3-(1-(4-fluorophenyl)ethoxy)phenyl)-5-(pyrazin-2-ylamino)-1H-pyrazole-4-carboxamide]	< 0.01	> 30	> 30
C[C@H](Oc1cc(-c2n[nH]c(Nc3cc(C4CCOCC4)ccn3)c2C(N)=O)ccc1NS(=O)(=O)C(F)F)c1ccc(F)cc1 [Compound 287, (S)-3-(4-((difluoromethyl)sulfonamido)-3-(1-(4-fluorophenyl)ethoxy)phenyl)-5-((4-(tetrahydro-2H-pyran-4-yl)pyridin-2-yl)amino)-1H-pyrazole-4-carboxamide]	< 0.01	> 30	> 30
CCS(=O)(=O)Nc1ccc(-c2n[nH]c(Nc3cnccn3)c2C(N)=O)cc1OCCc1ccccc1Cl [Compound 206, 3-(3-(2-chlorophenethoxy)-4-(ethylsulfonamido)phenyl)-5-(pyrazin-2-ylamino)-1H-pyrazole-4-carboxamide]	< 0.01	> 30	> 30
NC(=O)c1cccc(Nc2[nH]nc(-c3ccc(NS(=O)(=O)C(F)F)cc3)c2C(N)=O)n1 [Compound 257, 6-({4-carbamoyl-3-[4-(difluoromethanesulfonamido)phenyl]-1H-pyrazol-5-yl}amino)pyridine-2-carboxamide]	< 0.01	> 30	> 30
CCS(=O)(=O)Nc1ccc(-c2n[nH]c(Nc3cnccn3)c2C(N)=O)cc1OC(C)(C)c1ccc(F)cc1 [Compound 228, 3-(4-ethanesulfonamido-3-{[2-(4-fluorophenyl)propan-2-yl]oxy}phenyl)-5-[(pyrazin-2-yl)amino]-1H-pyrazole-4-carboxamide]	< 0.01	> 30	> 30
Cc1cn(C)nc1Nc1[nH]nc(-c2ccc(NS(=O)(=O)C(F)F)c(O[C@@H](C)c3ccc(F)cc3)c2)c1C(N)=O [Compound 286, (S)-3-(4-((difluoromethyl)sulfonamido)-3-(1-(4-fluorophenyl)ethoxy)phenyl)-5-((1,4-dimethyl-1H-pyrazol-3-yl)amino)-1H-pyrazole-4-carboxamide]	< 0.01	> 30	> 30
CCS(=O)(=O)Nc1ccc(-c2n[nH]c(Nc3cnc(C)cn3)c2C(N)=O)cc1 [Compound 101, 3-(4-(ethylsulfonamido)phenyl)-5-((5-methylpyrazin-2-yl)amino)-1H-pyrazole-4-carboxamide]	< 0.01	> 30	> 30
NC(=O)c1c(-c2ccc(NS(=O)(=O)CC(F)(F)F)c(OCc3ccc(F)c(F)c3)c2)n[nH]c1Nc1cnccn1 [Compound 175, 3-(3-((3,4-difluorobenzyl)oxy)-4-((2,2,2-trifluoroethyl)sulfonamido)phenyl)-5-(pyrazin-2-ylamino)-1H-pyrazole-4-carboxamide]	< 0.01	> 30	> 30
Cc1cnc(Nc2[nH]nc(-c3ccc(NS(=O)(=O)C(F)F)c(O[C@@H](C)c4ccc(F)cc4)c3)c2C(N)=O)cn1 [Compound 245, 3-[4-(difluoro-methanesulfon-amido)-3-[(1S)-1-(4-fluorophenyl)ethoxy]phenyl]-5-[(5-methylpyrazin-2-yl)amino]-1H-pyrazole-4-carboxamide]	< 0.01	> 30	> 30
C[C@H](Oc1cc(-c2n[nH]c(Nc3cc(C4(C)CC4)on3)c2C(N)=O)ccc1NS(=O)(=O)C(F)F)c1ccc(F)cc1 [Compound 276, (S)-3-(4-((difluoromethyl)sulfonamido)-3-(1-(4-fluorophenyl)ethoxy)phenyl)-5-((5-(1-methylcyclopropyl)isoxazol-3-yl)amino)-1H-pyrazole-4-carboxamide]	< 0.01	> 30	> 30
NC(=O)c1c(-c2ccc(NS(=O)(=O)CC(F)(F)F)cc2)n[nH]c1Nc1cnccn1 [Compound 137, 5-(pyrazin-2-ylamino)-3-(4-((2,2,2-trifluoroethyl)sulfonamido)phenyl)-1H-pyrazole-4-carboxamide]	< 0.01	> 30	> 30

Second part, the compound after the results:

Kd (MLKL (full length)) [µM]	Kd (RIP1) [µM]	Kd (RIP3) [µM]	Structure (SMILES)
< 0.01	> 30	> 30	CCS(=O)(=O)Nc1ccc(-c2n[nH]c(Nc3ccnc(C(F)(F)F)n3)c2C(N)=O)cc1OCc1ccc(F)cc1 [Compound 195, 3-(4-(ethylsulfonamido)-3-((4-fluorobenzyl)oxy)phenyl)-5-((2-(trifluoromethyl)pyrimidin-4-yl)amino)-1H-pyrazole-4-carboxamide]
< 0.01	> 30	> 30	CCS(=O)(=O)Nc1ccc(-c2n[nH]c(Nc3ccc(C(F)(F)F)cn3)c2C(N)=O)cc1 [Compound 93, 3-(4-(ethylsulfonamido)phenyl)-5-((5-(trifluoromethyl)pyridin-2-yl)amino)-1H-pyrazole-4-carboxamide]
< 0.01	> 30	> 30	C[C@H](Oc1cc(-c2n[nH]c(Nc3cnc(C4CC4)cn3)c2C(N)=O)ccc1NS(=O)(=O)C(F)F)c1ccc(F)cc1 [Compound 316, (S)-5-((5-cyclopropylpyrazin-2-yl)amino)-3-(4-((difluoromethyl)sulfonamido)-3-(1-(4-fluorophenyl)ethoxy)phenyl)-1H-pyrazole-4-carboxamide]
< 0.01	> 30	> 30	COCC(C)(C)c1cc(Nc2[nH]nc(-c3ccc(NS(=O)(=O)C(F)F)c(O[C@@H](C)c4ccc(F)cc4)c3)c2C(N)=O)no1 [Compound 288, (S)-3-(4-((difluoromethyl)sulfonamido)-3-(1-(4-fluorophenyl)ethoxy)phenyl)-5-((5-(1-methoxy-2-methylpropan-2-yl)isoxazol-3-yl)amino)-1H-pyrazole-4-carboxamide]
< 0.01	> 30	> 30	CCS(=O)(=O)Nc1ccc(-c2n[nH]c(Nc3cnccn3)c2C(N)=O)cc1OCc1ccncc1 [Compound 28, 3-(4-(ethylsulfonamido)-3-(226yridine-4-ylmethoxy)phenyl)-5-(pyrazin-2-ylamino)-1H-pyrazole-4-carboxamide]
< 0.01	> 30	> 30	CCS(=O)(=O)Nc1ccc(-c2n[nH]c(Nc3cnccn3)c2C(N)=O)cc1OCc1cccc(Cl)c1 [Compound 41, 3-(3-((3-chlorobenzyl)oxy)-4-(ethylsulfonamido)phenyl)-5-(pyrazin-2-ylamino)-1H-pyrazole-4-carboxamide]
< 0.01	> 30	> 30	CCS(=O)(=O)Nc1ccc(-c2n[nH]c(Nc3cnc(C4CC4)cn3)c2C(N)=O)cc1 [Compound 158, 5-((5-cyclopropylpyrazin-2-yl)amino)-3-(4-(ethylsulfonamido)phenyl)-1H-pyrazole-4-carboxamide]
< 0.01	> 30	> 30	Cc1cc(Nc2c(C(N)=O)c(-c3ccc(NS(=O)(=O)C(F)F)c(O[C@@H](C)c4ccc(F)cc4)c3)nn2C)no1 [Compound 320, (S)-3-(4-((difluoromethyl)sulfonamido)-3-(1-(4-fluorophenyl)ethoxy)phenyl)-1-methyl-5-((5-methylisoxazol-3-yl)amino)-1H-pyrazole-4-carboxamide]
< 0.01	> 30	> 30	CCS(=O)(=O)Nc1ccc(-c2n[nH]c(Nc3cnccn3)c2C(N)=O)cc1OCc1ccccn1 [Compound 261, 3-{4-ethanesulfonamido-3-[(pyridin-2-yl)methoxy]phenyl}-5-[(pyrazin-2-yl)amino]-1H-pyrazole-4-carboxamide]
< 0.01	> 30	> 30	CCS(=O)(=O)Nc1ccc(-c2n[nH]c(Nc3ccnc(OC)n3)c2C(N)=O)cc1 [Compound 123, 3-(4-(ethylsulfonamido)phenyl)-5-((2-methoxypyrimidin-4-yl)amino)-1H-pyrazole-4-carboxamide]
< 0.01	> 30	> 30	COC[C@@H](Oc1cc(-c2n[nH]c(Nc3cc(C)on3)c2C(N)=O)ccc1NS(=O)(=O)C(F)F)c1ccc(F)cc1 [Compound 300, (S)-3-(4-((difluoromethyl)sulfonamido)-3-(1-(4-fluorophenyl)-2-methoxyethoxy)phenyl)-5-((5-methylisoxazol-3-yl)amino)-1H-pyrazole-4-carboxamide]
< 0.01	> 30	> 30	C[C@H](Oc1cc(-c2n[nH]c(Nc3ccccn3)c2C(N)=O)ccc1NS(=O)(=O)C(F)F)c1ccc(F)cc1 [Compound 260]
< 0.01	> 30	> 30	NC(=O)c1c(-c2ccc(NS(=O)(=O)CC(F)(F)F)c(OC3(c4ccc(F)cc4)CC3)c2)n[nH]c1Nc1cnccn1 [Compound 144, 3-(3-(1-(4-fluorophenyl)cyclopropoxy)-4-((2,2,2-trifluoroethyl)sulfonamido)phenyl)-5-(pyrazin-2-ylamino)-1H-pyrazole-4-carboxamide]
< 0.01	> 30	> 30	Cc1cnc(Nc2[nH]nc(-c3ccc(NS(=O)(=O)CC(F)(F)F)c(OCc4ccc(Cl)cc4)c3)c2C(N)=O)cn1 [Compound 162, 3-(3-((4-chlorobenzyl)oxy)-4-((2,2,2-trifluoroethyl)sulfonamido)phenyl)-5-((5-methylpyrazin-2-yl)amino)-1H-pyrazole-4-carboxamide]
